US20120094964A1, “SULFAMOYL BENZOIC ACID DERIVATIVES AS TRPM8 ANTAGONISTS” (priority 2009, published 2012)

Target: T1, human TRPM8 (Homo sapiens, UniProt Q7Z2W7)
T1 construct: expressed in transfected cells
Assay: In Vitro human TRPM8 Functional Assay (intracellular Ca2+, Fluo4, FDSS, menthol activation)
Assay type: cell-based
Conditions: HEK293 cells stably expressing human TRPM8; activation with L-(-)-Menthol; 11-point dose-response
Method: In Vitro human TRPM8 Functional Assay
The functional activity of compounds was determined by measuring changes in intracellular calcium concentration using a Ca^2+-sensitive fluorescent dye, Fluo4 (Molecular Probes). The changes in fluorescent signal were monitored by the cell imaging technology by Hamamatsu Photonics's Functional Drug Screening System (FDSS).
HEK293 cells stably expressing human TRPM8 were grown in T175 flasks, in a 5% CO2 humidified incubator to about 80% confluence. Media composition consisted of Dulbecco's Modified Eagle Medium (high glucose), 10% fetal calf serum (FCS), 100 units/ml Penicillin, 100 microg/ml Streptomycin and 600 microg/ml Geneticine.
1. Plate-out HEK293-TRPM8 cells (40 microL medium containing 30,000 cells per well) into poly-D-lysine coated 384-well plates (BD FALCON) at 24 hours prior to assay.
1. […] 2. […] 3. Place the plate at room temperature in dark for 1 hour. 4. […] 5. Add 20 microL of compound solutions into each well and leave the plate for 5 minutes under the dark at room temperature. 6. Measure activity by FDSS as follows: • Set the assay plate on the stacker of FDSS • Start the detection of fluorescence intensity • After 30 sec, add 20 microL of 90 microM L-(−)-Menthol
IC50 values for compounds of the present invention were determined from 11-point dose-response studies. Curves were generated using the average of duplicate wells for each data point. Finally, the IC50 values are calculated with the best-fit dose curve determined by XLfit (ID Business Solutions Ltd.).

T1 sequence (Q7Z2W7 whole entry): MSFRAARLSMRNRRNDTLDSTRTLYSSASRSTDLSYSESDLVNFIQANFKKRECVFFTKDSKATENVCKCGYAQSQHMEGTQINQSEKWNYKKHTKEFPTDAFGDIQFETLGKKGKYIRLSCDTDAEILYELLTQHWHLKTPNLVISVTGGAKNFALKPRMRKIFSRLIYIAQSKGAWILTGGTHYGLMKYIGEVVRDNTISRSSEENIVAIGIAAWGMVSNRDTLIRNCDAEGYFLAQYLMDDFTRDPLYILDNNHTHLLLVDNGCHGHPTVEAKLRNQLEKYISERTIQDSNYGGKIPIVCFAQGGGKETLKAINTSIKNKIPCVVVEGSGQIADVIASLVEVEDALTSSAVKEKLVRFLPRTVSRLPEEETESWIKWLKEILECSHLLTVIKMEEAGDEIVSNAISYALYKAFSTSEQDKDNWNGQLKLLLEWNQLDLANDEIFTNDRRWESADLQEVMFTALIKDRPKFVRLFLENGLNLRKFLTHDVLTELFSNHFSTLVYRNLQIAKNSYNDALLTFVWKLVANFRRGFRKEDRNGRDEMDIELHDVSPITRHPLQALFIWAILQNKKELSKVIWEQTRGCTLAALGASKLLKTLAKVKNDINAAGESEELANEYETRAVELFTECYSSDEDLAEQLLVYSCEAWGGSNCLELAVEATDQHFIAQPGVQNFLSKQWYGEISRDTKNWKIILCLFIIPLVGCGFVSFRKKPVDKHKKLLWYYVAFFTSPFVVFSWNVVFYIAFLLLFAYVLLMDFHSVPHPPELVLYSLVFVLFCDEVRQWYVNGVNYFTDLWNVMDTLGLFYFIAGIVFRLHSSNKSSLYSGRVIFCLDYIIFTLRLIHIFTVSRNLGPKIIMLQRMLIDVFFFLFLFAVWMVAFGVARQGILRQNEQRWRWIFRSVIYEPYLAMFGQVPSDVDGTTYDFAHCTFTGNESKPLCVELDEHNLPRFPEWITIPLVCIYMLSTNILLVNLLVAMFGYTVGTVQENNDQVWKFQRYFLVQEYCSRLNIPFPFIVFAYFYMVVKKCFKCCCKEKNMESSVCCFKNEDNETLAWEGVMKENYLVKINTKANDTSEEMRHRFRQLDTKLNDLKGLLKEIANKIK

Row | SMILES | IC50
1 | CC1(c2ccc(CN(c3ncc(Cl)cc3Cl)S(=O)(=O)c3ccc(C(=O)O)cc3)cc2)CC1 [Example 70, 4-(N-(3,5-Dichloropyridin-2-yl)-N-(4-(1-methylcyclopropyl)benzyl)sulfamoyl)benzoic acid] | < 1000 nM
2 | O=C(O)c1ccc(S(=O)(=O)N(Cc2ccc(F)c(Cl)c2)c2ncc(C(F)(F)F)cc2Cl)cc1 [Example 71, 4-(N-(3-Chloro-4-fluorobenzyl)-N-(3-chloro-5-(trifluoromethyl)pyridin-2-yl)sulfamoyl)benzoic acid] | < 1000 nM
3 | O=C(O)c1ccc(S(=O)(=O)N(Cc2ccc(Cl)cc2C(F)(F)F)c2ncc(Cl)cc2Cl)cc1 [Example 72, 4-(N-(4-Chloro-2-(trifluoromethyl)benzyl)-N-(3,5-dichloropyridin-2-yl)sulfamoyl)benzoic acid] | < 1000 nM
4 | O=C(O)c1ccc(S(=O)(=O)N(CCOc2ccc(F)cc2)c2ncc(Cl)cc2Cl)cc1 [Example 73, 4-(N-(3,5-Dichloropyridin-2-yl)-N-(2-(4-fluorophenoxy)ethyl)sulfamoyl)benzoic acid] | 10000 to 30000 nM
5 | O=C(O)c1ccc(S(=O)(=O)N(Cc2ccc(N3CCCC3=O)cc2)c2ncc(Cl)cc2Cl)cc1 [Example 74, 4-(N-(3,5-Dichloropyridin-2-yl)-N-(4-(2-oxopyrrolidin-1-yl)benzyl)sulfamoyl)benzoic acid] | 1000 to 10000 nM
6 | Cc1cc(Cl)cnc1N(Cc1ccc(Cl)cc1C(F)(F)F)S(=O)(=O)c1ccc(C(=O)O)cc1 [Example 75, 4-(N-(4-Chloro-2-(trifluoromethyl)benzyl)-N-(5-chloro-3-methylpyridin-2-yl)sulfamoyl)benzoic acid] | < 1000 nM
7 | Cc1cc(Cl)cnc1N(Cc1ccc(F)c(C(F)(F)F)c1)S(=O)(=O)c1ccc(C(=O)O)cc1 [Example 76, 4-(N-(5-Chloro-3-methylpyridin-2-yl)-N-(4-fluoro-3-(trifluoromethyl)benzyl)sulfamoyl)benzoic acid] | < 1000 nM
8 | Cc1cc(Cl)cnc1N(Cc1ccc(F)c(Cl)c1)S(=O)(=O)c1ccc(C(=O)O)cc1 [Example 77, 4-(N-(5-Chloro-3-methylpyridin-2-yl)-N-(3-chloro-4-fluorobenzyl)sulfamoyl)benzoic acid] | < 1000 nM
9 | Cc1cc(Cl)cnc1N(Cc1ccc(OC(F)(F)F)cc1)S(=O)(=O)c1ccc(C(=O)O)cc1 [Example 78, 4-(N-(5-Chloro-3-methylpyridin-2-yl)-N-(4-(trifluoromethoxy)benzyl)sulfamoyl)benzoic acid] | < 1000 nM
10 | Cc1cc(Cl)cnc1N(Cc1ccc(Cl)c(C(F)(F)F)c1)S(=O)(=O)c1ccc(C(=O)O)cc1 [Example 79, 4-(N-(4-Chloro-3-(trifluoromethyl)benzyl)-N-(5-chloro-3-methylpyridin-2-yl)sulfamoyl)benzoic acid] | < 1000 nM
11 | Cc1cc(Cl)cnc1N(Cc1ccc(N2CCCC2=O)cc1)S(=O)(=O)c1ccc(C(=O)O)cc1 [Example 80, 4-(N-(5-Chloro-3-methylpyridin-2-yl)-N-(4-(2-oxopyrrolidin-1-yl)benzyl)sulfamoyl)benzoic acid] | 1000 to 10000 nM
12 | O=C(O)c1ccc(S(=O)(=O)N(CCN2CCOCC2)c2ccc(C(F)(F)F)cc2Cl)cc1 [Example 81, 4-(N-(2-Chloro-4-(trifluoromethyl)phenyl)-N-(2-morpholinoethyl)sulfamoyl)benzoic acid] | 1000 to 10000 nM
13 | O=C(O)c1ccc(S(=O)(=O)N(Cc2ccccn2)c2ccc(C(F)(F)F)cc2Cl)cc1 [Example 82, 4-(N-(2-Chloro-4-(trifluoromethyl)phenyl)-N-(pyridin-2-ylmethyl)sulfamoyl)benzoic acid] | 1000 to 10000 nM
14 | O=C(O)c1ccc(S(=O)(=O)N(CCN2CCCCC2)c2ccc(C(F)(F)F)cc2Cl)cc1 [Example 83, 4-(N-(2-Chloro-4-(trifluoromethyl)phenyl)-N-(2-(piperidin-1-yl)ethyl)sulfamoyl)benzoic acid] | 1000 to 10000 nM
15 | COc1cccc(N(CC(=O)N2CCN(Cc3ccccc3)CC2)S(=O)(=O)c2ccccc2)c1 [Example 84, N-(2-(4-Benzylpiperazin-1-yl)-2-oxoethyl)-N-(3-methoxyphenyl)benzene-sulfonamide] | 1000 to 10000 nM
16 | COc1ccc(OC)c(C(C)N(c2ccc(C)cc2)S(=O)(=O)c2ccc(C)cc2)c1 (stereo not drawn) [Example 85, N-(1-(2,5-Dimethoxyphenyl)ethyl)-4-methyl-N-p-tolylbenzenesulfonamide] | 1000 to 10000 nM
17 | COc1ccc(OC)c(C(C)N(c2cccc(Cl)c2)S(=O)(=O)c2ccc(C)cc2)c1 (stereo not drawn) [Example 86, N-(3-Chlorophenyl)-N-(1-(2,5-dimethoxyphenyl)ethyl)-4-methylbenzene-sulfonamide] | 1000 to 10000 nM
18 | COc1ccc(N(C(C)c2ccc(Cl)cc2)S(=O)(=O)c2ccccc2)cc1 (stereo not drawn) [Example 87, N-(1-(4-Chlorophenyl)ethyl)-N-(4-methoxyphenyl) benzenesulfonamide] | 1000 to 10000 nM

Row | SMILES | IC50
19 | COc1ccc(N(C(C)c2ccccc2F)S(=O)(=O)c2ccc(F)cc2)cc1 (stereo not drawn) [Example 88, 4-Fluoro-N-(1-(2-fluorophenyl)ethyl)-N-(4-methoxyphenyl)benzene-sulfonamide] | < 1000 nM
20 | COc1ccc(N(C(C)c2ccccc2OC)S(=O)(=O)c2ccc(C)cc2)cc1 (stereo not drawn) [Example 89, N-(4-Methoxyphenyl)-N-(1-(2-methoxyphenyl)ethyl)-4-methylbenzene-sulfonamide] | 1000 to 10000 nM
21 | COc1cccc(N(C(C)c2cc(OC)ccc2OC)S(=O)(=O)c2ccccc2F)c1 (stereo not drawn) [Example 90, N-(1-(2,5-Dimethoxyphenyl)ethyl)-2-fluoro-N-(3-methoxyphenyl)benzene-sulfonamide] | 1000 to 10000 nM
22 | Cc1cccc(N(C(C)c2ccccc2F)S(=O)(=O)c2ccccc2F)c1 (stereo not drawn) [Example 91, 2-Fluoro-N-(1-(2-fluoro-phenyl)ethyl)-N-m-tolyl benzenesulfonamide] | 1000 to 10000 nM
23 | COc1cccc(N(C(C)c2ccccc2F)S(=O)(=O)c2ccccc2F)c1 (stereo not drawn) [Example 92, 2-Fluoro-N-(1-(2-fluorophenyl)ethyl)-N-(3-methoxyphenyl)benzene-sulfonamide] | 1000 to 10000 nM
24 | COc1ccc(N(C(C)c2ccccc2OC)S(=O)(=O)c2ccccc2F)cc1OC (stereo not drawn) [Example 93, N-(3,4-Dimethoxyphenyl)-2-fluoro-N-(1-(2-methoxy-phenyl)ethyl)benzene-sulfonamide] | 1000 to 10000 nM
25 | COc1cccc(N(C(C)c2ccccc2)S(=O)(=O)c2ccc(F)c(Cl)c2)c1 (stereo not drawn) [Example 94, 3-Chloro-4-fluoro-N-(3-methoxyphenyl)-N-(1-phenylethyl)benzene-sulfonamide] | 1000 to 10000 nM
26 | COc1cccc(N(C(C)c2ccccc2C)S(=O)(=O)c2ccc(C)c(Cl)c2)c1 (stereo not drawn) [Example 95, 3-Chloro-N-(3-methoxy-phenyl)-4-methyl-N-(1-o-tolylethyl)benzene-sulfonamide] | 10000 to 30000 nM
27 | COc1ccc(OC)c(C(C)N(c2ccc(C)cc2)S(=O)(=O)c2ccc(F)cc2C)c1 (stereo not drawn) [Example 96, N-(1-(2,5-Dimethoxyphenyl)ethyl)-4-fluoro-2-methyl-N-p-tolylbenzenesulfonamide] | 1000 to 10000 nM
28 | COc1ccc(N(C(C)c2ccccc2F)S(=O)(=O)c2ccc(F)c(Cl)c2)cc1 (stereo not drawn) [Example 97, 3-Chloro-4-fluoro-N-(1-(2-fluorophenyl)ethyl)-N-(4-methoxyphenyl) benzenesulfonamide] | 1000 to 10000 nM
29 | Cc1cccc(N(C(C)c2ccccc2F)S(=O)(=O)c2ccc(F)cc2C)c1 (stereo not drawn) [Example 98, 4-Fluoro-N-(1-(2-fluorophenyl)ethyl)-2-methyl-N-m-tolylbenzenesulfonamide] | 1000 to 10000 nM
30 | Cc1cccc(N(C(C)c2ccccc2F)S(=O)(=O)c2cc(F)ccc2C)c1 (stereo not drawn) [Example 99, 5-Fluoro-N-(1-(2-fluoro-phenyl)ethyl)-2-methyl-N-m-tolylbenzenesulfonamide] | 1000 to 10000 nM
31 | Cc1cccc(N(C(C)c2ccccc2F)S(=O)(=O)c2ccccc2C)c1 (stereo not drawn) [Example 100, N-(1-(2-Fluorophenyl)ethyl)-2-methyl-N-tolyl benzenesulfonamide] | 1000 to 10000 nM
32 | COc1cccc(C(C)N(c2ccccc2)S(=O)(=O)c2ccc(C)c(F)c2)c1 (stereo not drawn) [Example 101, 3-Fluoro-N-(1-(3-methoxyphenyl)ethyl)-4-methyl-N-phenylbenzene-sulfonamide] | 1000 to 10000 nM
33 | COc1cccc(C(C)N(c2cccc(OC)c2)S(=O)(=O)c2ccc(C)c(Cl)c2)c1 (stereo not drawn) [Example 102, 3-Chloro-N-(3-methoxyphenyl)-N-(1-(3-methoxy-phenyl)ethyl)-4-methyl benzenesulfonamide] | 1000 to 10000 nM
34 | COc1cccc(C(C)N(c2cccc(OC)c2)S(=O)(=O)c2ccc(C)c(F)c2)c1 (stereo not drawn) [Example 103, 3-Fluoro-N-(3-methoxyphenyl)-N-(1-(3-methoxy-phenyl)ethyl)-4-methyl benzenesulfonamide] | 1000 to 10000 nM
35 | COc1ccc(N(C(C)c2ccccc2OC)S(=O)(=O)c2ccc(C)c(Cl)c2)cc1 (stereo not drawn) [Example 104, 3-Chloro-N-(4-methoxyphenyl)-N-(1-(2-methoxy-phenyl)ethyl)-4-methyl benzenesulfonamide] | 10000 to 30000 nM
36 | COc1ccccc1C(C)N(c1cccc(F)c1)S(=O)(=O)c1ccc(C)c(Cl)c1 (stereo not drawn) [Example 105, 3-Chloro-N-(3-fluorophenyl)-N-(1-(2-methoxyphenyl)ethyl)-4-methylbenzene-sulfonamide] | 1000 to 10000 nM
